Assay results from BindingDB's records for doi:10.7270/Q2MS3R62 (Burnham Center For Chemical Genomics, 2007).

Target: Heat shock cognate 71 kDa protein (Homo sapiens, UniProt P11142)
Sequence (P11142 whole entry): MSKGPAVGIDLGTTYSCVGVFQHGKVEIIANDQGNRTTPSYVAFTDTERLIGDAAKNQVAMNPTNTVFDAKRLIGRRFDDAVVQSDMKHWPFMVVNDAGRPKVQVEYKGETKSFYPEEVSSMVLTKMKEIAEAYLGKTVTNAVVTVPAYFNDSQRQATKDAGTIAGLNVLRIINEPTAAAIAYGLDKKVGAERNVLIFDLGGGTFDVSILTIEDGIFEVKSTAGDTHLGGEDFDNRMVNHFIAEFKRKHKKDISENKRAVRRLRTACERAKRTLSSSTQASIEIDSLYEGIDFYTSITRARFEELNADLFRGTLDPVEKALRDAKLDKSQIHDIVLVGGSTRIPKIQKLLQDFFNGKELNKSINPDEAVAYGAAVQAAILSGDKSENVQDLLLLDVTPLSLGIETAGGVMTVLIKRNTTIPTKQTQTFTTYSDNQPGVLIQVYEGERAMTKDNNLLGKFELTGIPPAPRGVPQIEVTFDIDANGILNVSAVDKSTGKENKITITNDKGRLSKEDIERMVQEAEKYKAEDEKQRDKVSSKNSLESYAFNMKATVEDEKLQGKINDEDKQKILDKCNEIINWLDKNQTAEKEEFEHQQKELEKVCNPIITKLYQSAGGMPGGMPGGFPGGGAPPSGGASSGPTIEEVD

Row | IC50 | SMILES
1 | 999 µM | CC(=O)N1CCC2(CC1)c1c(n[nH]c1C)OC(=N)C2C#N (configuration not stated) [6-azanyl-1'-ethanoyl-3-methyl-spiro[2H-pyrano[2,3-c]pyrazole-4,4'-piperidine]-5-carbonitrile]
2 | 999 µM | C=c1[nH]n(-c2cccc(C(=O)O)c2)c(=O)c1=CC=Cc1ccco1 [SMR000113614]
